The values that follow come from PMC5218480 (PLoS ONE, 2017).

In the assay the test system is MV-4-11 cells. Put plainly: Gene expression microarray analysis (Affymetrix PrimeView) and GSEA. Type of assay: cell-based, human. Also noted: RFU PODN (11730768_x_at) / Fold change /veh PODN (11730768_x_at) / RFU LINC00158 (11744669_a_at) / Fold change /veh LINC00158 (11744669_a_at) / RFU DUSP10 (11751237_a_at) / Fold change /veh DUSP10 (11751237_a_at) / RFU ID3 (11757404_x_at) / Fold change /veh ID3 (11757404_x_at) / RFU PLEKHG5 (11737974_s_at) / Fold change /veh PLEKHG5 (11737974_s_at) / RFU LRRC4B (11730491_at) / Fold change /veh LRRC4B (11730491_at) / RFU GIMAP4 (11747438_a_at) / Fold change /veh GIMAP4 (11747438_a_at) / RFU KRT8 (11758183_x_at) / Fold change /veh KRT8 (11758183_x_at) / RFU CNN1 (11734310_a_at) / Fold change /veh CNN1 (11734310_a_at) / RFU VPS37D (11726825_at) / Fold change /veh VPS37D (11726825_at) / RFU C10orf10 (11716522_x_at) / Fold change /veh C10orf10 (11716522_x_at) / RFU KIR2DL2 /// KIR2DL4 /// KIR2DL5A /// KIR2DL5B /// KIR2DS1 /// KIR2DS2 /// KIR2DS3 /// KIR2DS4 /// KIR3DL3 /// KIR3DL3 /// KIR3DS1 (11738374_at) / Fold change /veh KIR2DL2 /// KIR2DL4 /// KIR2DL5A /// KIR2DL5B /// KIR2DS1 /// KIR2DS2 /// KIR2DS3 /// KIR2DS4 /// KIR3DL3 /// KIR3DL3 /// KIR3DS1 (11738374_at) / RFU C1QL1 (11718748_at) / Fold change /veh C1QL1 (11718748_at) / RFU TMPRSS4 (11747572_a_at) / Fold change /veh TMPRSS4 (11747572_a_at) / RFU HAMP (11756126_x_at) / Fold change /veh HAMP (11756126_x_at) / RFU RNFT2 (11725882_a_at) / Fold change /veh RNFT2 (11725882_a_at) / RFU NR4A2 (11747474_a_at) / Fold change /veh NR4A2 (11747474_a_at) / RFU ABCC12 (11746883_a_at) / Fold change /veh ABCC12 (11746883_a_at) / RFU TMEM136 (11760407_x_at) / Fold change /veh TMEM136 (11760407_x_at) / RFU CLDN22 /// WWC2 (11732394_at) / Fold change /veh CLDN22 /// WWC2 (11732394_at) / RFU HLA-DPB1 (11760878_x_at) / Fold change /veh HLA-DPB1 (11760878_x_at) / RFU SPINT1 (11716480_a_at) / Fold change /veh SPINT1 (11716480_a_at) / RFU GAP43 (11754022_s_at) / Fold change /veh GAP43 (11754022_s_at) / RFU A4GNT (11735810_at) / Fold change /veh A4GNT (11735810_at) / RFU PRB3 (11715151_x_at) / Fold change /veh PRB3 (11715151_x_at) / RFU TUBB4B (11761932_at) / Fold change /veh TUBB4B (11761932_at) / RFU CAPN14 (11732068_a_at) / Fold change /veh CAPN14 (11732068_a_at) / RFU TMCC2 (11721928_a_at) / Fold change /veh TMCC2 (11721928_a_at) / RFU IRGQ (11745062_a_at) / Fold change /veh IRGQ (11745062_a_at) / RFU FAM174B (11720279_a_at) / Fold change /veh FAM174B (11720279_a_at) / RFU TMPRSS4 (11748680_a_at) / Fold change /veh TMPRSS4 (11748680_a_at) / RFU FAM212B (11763350_a_at) / Fold change /veh FAM212B (11763350_a_at) / RFU PLEKHG5 (11743358_a_at) / Fold change /veh PLEKHG5 (11743358_a_at) / RFU ZSCAN30 (11745921_a_at) / Fold change /veh ZSCAN30 (11745921_a_at) / RFU CMKLR1 (11741424_a_at) / Fold change /veh CMKLR1 (11741424_a_at) / RFU LOC101060620 /// MAPK8IP1 (11723275_at) / Fold change /veh LOC101060620 /// MAPK8IP1 (11723275_at) / RFU SPTSSB (11747773_x_at) / Fold change /veh SPTSSB (11747773_x_at) / RFU PRSS12 (11739890_at) / Fold change /veh PRSS12 (11739890_at) / RFU BIN1 (11741810_x_at) / Fold change /veh BIN1 (11741810_x_at) / RFU WNT11 (11732464_a_at) / Fold change /veh WNT11 (11732464_a_at) / RFU C10orf10 (11716521_a_at) / Fold change /veh C10orf10 (11716521_a_at) / RFU C5orf56 (11738089_at) / Fold change /veh C5orf56 (11738089_at) / RFU CYB561 (11721691_x_at) / Fold change /veh CYB561 (11721691_x_at) / RFU ANKRD19P (11752326_a_at) / Fold change /veh ANKRD19P (11752326_a_at) / RFU OR2T12 /// OR2T33 /// OR2T8 (11738714_s_at) / Fold change /veh OR2T12 /// OR2T33 /// OR2T8 (11738714_s_at) / RFU VCAN (11748164_a_at) / Fold change /veh VCAN (11748164_a_at) / RFU JSRP1 (11732532_at) / Fold change /veh JSRP1 (11732532_at) / RFU KRTAP10-11 (11738290_x_at) / Fold change /veh KRTAP10-11 (11738290_x_at) / RFU MYO3A (11730013_a_at) / Fold change /veh MYO3A (11730013_a_at) / RFU EBF3 (11725865_a_at) / Fold change /veh EBF3 (11725865_a_at) / RFU CAMK2N1 (11719241_x_at) / Fold change /veh CAMK2N1 (11719241_x_at) / RFU C5orf56 (11738088_a_at) / Fold change /veh C5orf56 (11738088_a_at) / RFU OLFML3 (11715873_a_at) / Fold change /veh OLFML3 (11715873_a_at) / RFU LOC100653217 /// NTM (11731650_a_at) / Fold change /veh LOC100653217 /// NTM (11731650_a_at) / RFU MAPK11 (11762145_a_at) / Fold change /veh MAPK11 (11762145_a_at) / RFU FIZ1 (11724087_x_at) / Fold change /veh FIZ1 (11724087_x_at) / RFU OASL (11726364_x_at) / Fold change /veh OASL (11726364_x_at) / RFU SOX15 (11748057_x_at) / Fold change /veh SOX15 (11748057_x_at) / RFU CD79A (11719716_a_at) / Fold change /veh CD79A (11719716_a_at) / RFU HIST1H1D (11736915_at) / Fold change /veh HIST1H1D (11736915_at) / RFU CASKIN2 (11723855_a_at) / Fold change /veh CASKIN2 (11723855_a_at) / RFU LOC730098 (11760151_x_at) / Fold change /veh LOC730098 (11760151_x_at) / RFU OR4N2 (11742367_at) / Fold change /veh OR4N2 (11742367_at) / RFU PRRT2 (11749266_a_at) / Fold change /veh PRRT2 (11749266_a_at) / RFU SNX32 (11753110_a_at) / Fold change /veh SNX32 (11753110_a_at) / RFU CDHR5 (11726645_a_at) / Fold change /veh CDHR5 (11726645_a_at) / RFU RCAN1 (11760418_a_at) / Fold change /veh RCAN1 (11760418_a_at) / RFU FAM167A (11723789_a_at) / Fold change /veh FAM167A (11723789_a_at) / RFU FAM26E (11764081_at) / Fold change /veh FAM26E (11764081_at) / RFU ISYNA1 (11749810_s_at) / Fold change /veh ISYNA1 (11749810_s_at) / RFU ACY1 (11761880_at) / Fold change /veh ACY1 (11761880_at) / RFU 11764098_at / Fold change /veh 11764098_at / RFU SAMD14 (11745864_x_at) / Fold change /veh SAMD14 (11745864_x_at) / RFU NPB (11741838_a_at) / Fold change /veh NPB (11741838_a_at) / RFU TMPRSS6 (11731388_a_at) / Fold change /veh TMPRSS6 (11731388_a_at) / RFU KRTAP10-2 (11738614_at) / Fold change /veh KRTAP10-2 (11738614_at) / RFU ARHGAP8 /// PRR5-ARHGAP8 (11727945_x_at) / Fold change /veh ARHGAP8 /// PRR5-ARHGAP8 (11727945_x_at) / RFU KRTAP5-7 /// NADSYN1 (11734609_at) / Fold change /veh KRTAP5-7 /// NADSYN1 (11734609_at) / RFU RASL12 (11751679_a_at) / Fold change /veh RASL12 (11751679_a_at) / RFU CDKN2B (11736163_a_at) / Fold change /veh CDKN2B (11736163_a_at) / RFU PRF1 (11729649_at) / Fold change /veh PRF1 (11729649_at) / RFU, ZNF638 /// ZNF638-IT1 / Fold change vs veh, ZNF638 /// ZNF638-IT1 / RFU, PANK3 / Fold change vs veh, PANK3 / RFU, SH3YL1 / Fold change vs veh, SH3YL1 / RFU, ZEB2 / Fold change vs veh, ZEB2 / RFU, NRIP1 / Fold change vs veh, NRIP1 / RFU, PTTG1IP / Fold change vs veh, PTTG1IP / RFU, CAPN2 / Fold change vs veh, CAPN2 / RFU, MED14 / Fold change vs veh, MED14 / RFU, SNORA58 / Fold change vs veh, SNORA58 / RFU, C1orf63 / Fold change vs veh, C1orf63 / RFU, LRRFIP1 / Fold change vs veh, LRRFIP1 / RFU, NDUFAF7 / Fold change vs veh, NDUFAF7 / RFU, SLC12A2 / Fold change vs veh, SLC12A2 / RFU, IBTK / Fold change vs veh, IBTK / RFU, ESF1 / Fold change vs veh, ESF1 / Fold change vs veh, TMEM50B / RFU, TAOK1 / Fold change vs veh, TAOK1 / RFU, ACBD3 / Fold change vs veh, ACBD3 / RFU, TMA16 / Fold change vs veh, TMA16 / RFU, RWDD3 / Fold change vs veh, RWDD3 / RFU, BCAT1 / Fold change vs veh, BCAT1 / RFU, EDEM3 / Fold change vs veh, EDEM3 / RFU, TMEM33 / Fold change vs veh, TMEM33 / RFU, WDR75 / Fold change vs veh, WDR75 / RFU, AHCTF1 / Fold change vs veh, AHCTF1 / RFU, TFRC / Fold change vs veh, TFRC / RFU, ZDHHC17 / Fold change vs veh, ZDHHC17 / RFU, NOM1 / Fold change vs veh, NOM1 / RFU, ARL8B / Fold change vs veh, ARL8B / RFU, ZBTB11 / Fold change vs veh, ZBTB11 / RFU, TAMM41 / Fold change vs veh, TAMM41 / RFU, KIAA1704 /// LOC100996395 / Fold change vs veh, KIAA1704 /// LOC100996395 / RFU, ING1 / Fold change vs veh, ING1 / RFU, TRMT61B / Fold change vs veh, TRMT61B / RFU, FUBP3 / Fold change vs veh, FUBP3 / RFU, TP53 / Fold change vs veh, TP53 / RFU, TNKS2 / Fold change vs veh, TNKS2 / RFU, ZFP14 / Fold change vs veh, ZFP14 / RFU, ACTR2 / Fold change vs veh, ACTR2 / RFU, PPP3R1 / Fold change vs veh, PPP3R1 / RFU, PIK3R1 / Fold change vs veh, PIK3R1 / RFU, HNRNPA1 / Fold change vs veh, HNRNPA1 / RFU, RNF170 / Fold change vs veh, RNF170 / RFU, ZNF28 / Fold change vs veh, ZNF28 / RFU, RNGTT / Fold change vs veh, RNGTT / RFU, OGT / Fold change vs veh, OGT / RFU, BRD1 / Fold change vs veh, BRD1 / RFU, MARS / Fold change vs veh, MARS / RFU, ZNF655 / Fold change vs veh, ZNF655 / RFU, FAHD1 / Fold change vs veh, FAHD1 / RFU, BDP1 / Fold change vs veh, BDP1 / RFU, LRRCC1 / Fold change vs veh, LRRCC1 / RFU, ARID1A / Fold change vs veh, ARID1A / RFU, ZNF146 / Fold change vs veh, ZNF146 / RFU, ZNF330 / Fold change vs veh, ZNF330 / RFU, GPN3 / Fold change vs veh, GPN3 / RFU, C9orf123 / Fold change vs veh, C9orf123 / RFU, N4BP2L2 / Fold change vs veh, N4BP2L2 / RFU, ARFIP1 / Fold change vs veh, ARFIP1 / RFU, FAM179B / Fold change vs veh, FAM179B / RFU, BCL10 / Fold change vs veh, BCL10 / RFU, UHRF1BP1L / Fold change vs veh, UHRF1BP1L / RFU, BET1 / Fold change vs veh, BET1 / RFU, CNOT2 / Fold change vs veh, CNOT2 / RFU, ZNF268 / Fold change vs veh, ZNF268 / Fold change vs veh, ZNF507 / RFU, DGCR2 / Fold change vs veh, DGCR2 / RFU, WDSUB1 / Fold change vs veh, WDSUB1 / Fold change vs veh, HSP90B1 /// MIR3652 / RFU, ADSS / Fold change vs veh, ADSS / RFU, GK / Fold change vs veh, GK / RFU, ZNF148 / Fold change vs veh, ZNF148 / RFU, TAF9 / Fold change vs veh, TAF9 / RFU, SLC1A5 / Fold change vs veh, SLC1A5 / RFU, SLMO2 / Fold change vs veh, SLMO2 / RFU, ABCC4 / Fold change vs veh, ABCC4 / RFU, LOC101060439 /// RAP1B / Fold change vs veh, LOC101060439 /// RAP1B / RFU, RFX7 / Fold change vs veh, RFX7 / RFU, GTPBP10 / Fold change vs veh, GTPBP10 / RFU, CNEP1R1 / Fold change vs veh, CNEP1R1 / RFU, BIVM-ERCC5 /// ERCC5 / Fold change vs veh, BIVM-ERCC5 /// ERCC5 / RFU, ILF3 / Fold change vs veh, ILF3 / RFU 11762660_at / Fold change /veh 11762660_at / RFU VCAN (11757783_s_at) / Fold change /veh VCAN (11757783_s_at) / RFU DDX43 (11728927_at) / Fold change /veh DDX43 (11728927_at) / RFU KRT8 (11758188_x_at) / Fold change /veh KRT8 (11758188_x_at) / RFU NKD1 (11759106_at) / Fold change /veh NKD1 (11759106_at) / RFU SRD5A1 (11742802_a_at) / Fold change /veh SRD5A1 (11742802_a_at) / RFU TPSAB1 /// TPSB2 (11721975_s_at) / Fold change /veh TPSAB1 /// TPSB2 (11721975_s_at) / RFU GSTM3 (11746129_a_at) / Fold change /veh GSTM3 (11746129_a_at) / RFU IL23R (11737362_x_at) / Fold change /veh IL23R (11737362_x_at) / RFU TMEM51 (11727254_a_at) / Fold change /veh TMEM51 (11727254_a_at) / RFU PIWIL2 (11732686_x_at) / Fold change /veh PIWIL2 (11732686_x_at) / RFU ORM1 (11744905_x_at) / Fold change /veh ORM1 (11744905_x_at) / RFU CCDC152 (11743942_at) / Fold change /veh CCDC152 (11743942_at) / RFU ECM1 (11717891_a_at) / Fold change /veh ECM1 (11717891_a_at) / RFU IL23R (11748794_a_at) / Fold change /veh IL23R (11748794_a_at) / RFU TNFAIP8L3 (11732012_x_at) / Fold change /veh TNFAIP8L3 (11732012_x_at) / RFU MBOAT4 (11741988_at) / Fold change /veh MBOAT4 (11741988_at) / RFU 11764193_at / Fold change /veh 11764193_at / RFU TMEM53 (11763286_at) / Fold change /veh TMEM53 (11763286_at) / RFU MAGEB2 (11727129_at) / Fold change /veh MAGEB2 (11727129_at) / RFU TMEM200A (11744735_a_at) / Fold change /veh TMEM200A (11744735_a_at) / RFU CCDC152 (11751479_a_at) / Fold change /veh CCDC152 (11751479_a_at) / RFU FAM211A (11726209_a_at) / Fold change /veh FAM211A (11726209_a_at) / RFU RGS16 (11746705_a_at) / Fold change /veh RGS16 (11746705_a_at) / RFU VCAN (11755009_s_at) / Fold change /veh VCAN (11755009_s_at) / RFU RHOB (11743442_s_at) / Fold change /veh RHOB (11743442_s_at) / RFU RGS16 (11720943_a_at) / Fold change /veh RGS16 (11720943_a_at) / RFU RGS16 (11720944_at) / Fold change /veh RGS16 (11720944_at) / RFU, VPS4B / Fold change vs veh, VPS4B / RFU, CREB1 / Fold change vs veh, CREB1 / RFU, DNAJC13 / Fold change vs veh, DNAJC13 / RFU, GNAQ / Fold change vs veh, GNAQ / RFU, CDK5R1 / Fold change vs veh, CDK5R1 / RFU, ZRANB3 / Fold change vs veh, ZRANB3 / RFU, CUL4A / Fold change vs veh, CUL4A / RFU, CCNY / Fold change vs veh, CCNY / RFU, UFL1 / Fold change vs veh, UFL1 / RFU, COG3 / Fold change vs veh, COG3 / RFU, DIAPH2 / Fold change vs veh, DIAPH2 / RFU, SKA2 / Fold change vs veh, SKA2 / RFU, AFF3 / Fold change vs veh, AFF3 / RFU, LMF1 / Fold change vs veh, LMF1 / RFU, IPO11 / Fold change vs veh, IPO11 / RFU, DFFB / Fold change vs veh, DFFB / RFU, FOXP1 / Fold change vs veh, FOXP1 / RFU, CARD8 / Fold change vs veh, CARD8 / RFU, STRN3 / Fold change vs veh, STRN3 / RFU, ADK / Fold change vs veh, ADK / RFU, RASSF2 / Fold change vs veh, RASSF2 / RFU, WIPF1 / Fold change vs veh, WIPF1 / RFU, LARP1B / Fold change vs veh, LARP1B / RFU, RASA1 / Fold change vs veh, RASA1 / RFU, RB1 / Fold change vs veh, RB1 / RFU, PPFIA1 / Fold change vs veh, PPFIA1 / RFU, MAT2A / Fold change vs veh, MAT2A / RFU, CCT5 / Fold change vs veh, CCT5 / RFU, WDR92 / Fold change vs veh, WDR92 / RFU, CUX1 / Fold change vs veh, CUX1 / RFU, TTC7A / Fold change vs veh, TTC7A / RFU, TMEM135 / Fold change vs veh, TMEM135 / RFU, DEPTOR / Fold change vs veh, DEPTOR / RFU, CPM / Fold change vs veh, CPM / RFU, DNAJB6 / Fold change vs veh, DNAJB6 / RFU, CACNA2D3 / Fold change vs veh, CACNA2D3 / RFU, DTX4 / Fold change vs veh, DTX4 / RFU, TFCP2 / Fold change vs veh, TFCP2 / RFU, GMCL1 /// GMCL1P1 / Fold change vs veh, GMCL1 /// GMCL1P1 / RFU, AEBP2 / Fold change vs veh, AEBP2 / RFU, SNHG1 /// SNORD22 /// SNORD25 /// SNORD26 /// SNORD27 /// SNORD28 /// SNORD29 /// SNORD31 / Fold change vs veh, SNHG1 /// SNORD22 /// SNORD25 /// SNORD26 /// SNORD27 /// SNORD28 /// SNORD29 /// SNORD31 / Fold change (Aza/veh), C12orf56 (ProbeSet 11735607_a_at) / Fold change (ACY-1035/veh), C12orf56 (ProbeSet 11735607_a_at) / Fold change (Aza/veh), FGFR1OP (ProbeSet 11751329_s_at) / Fold change (ACY-1035/veh), FGFR1OP (ProbeSet 11751329_s_at) / Fold change (Aza/veh), VPS36 (ProbeSet 11739960_a_at) / Fold change (ACY-1035/veh), VPS36 (ProbeSet 11739960_a_at) / RFU SYPL1 (11715823_x_at) / Fold change /veh SYPL1 (11715823_x_at) / RFU IGFBP7 (11715501_s_at) / Fold change /veh IGFBP7 (11715501_s_at) / RFU REEP3 (11722064_at) / Fold change /veh REEP3 (11722064_at) / RFU IGLL1 (11728026_x_at) / Fold change /veh IGLL1 (11728026_x_at): dose or concentration left out as unconfirmed. The conditions noted are these: ProbeSet 11723141_at; LIST B.

On to `Nc1ccc(-c2cccs2)cc1NC(=O)c1ccc2c(c1)cc(C1CC1)n2CCN1CCOCC1` [ACY-1035], for which the “RFU, ZBTB11” value came out at 113.11 RFU.
